In patent publication US11241434B2, “Compositions and methods for improving cognition in a subject” (Yale University, priority 2013, dated 2022):

Assays:
[1] = test system: Fyn (p-SFK) and eEF2 phosphorylation in cortical neurons; test: Aβo-induced Fyn activation and eEF2 phosphorylation in cortical neurons (immunoblot); type: cell-based, mouse
Description: FIG. 2A: DIV21 cortical neurons from wild type or Prnp−/− mice were treated with or without Aβo for 5 min. Whole cell lysates were analyzed by anti-phospho-eEF2, anti-eEF2, or anti-PrP^C immunoblot. Aβo increased p-eEF2/eEF2 ratio to 210±20% of baseline in WT cultures (mean±sem, n=3), but there was no significant increase in Prnp−/− cultures. FIG. 2B: DIV21 cortical neurons from wild type mice were treated with the indicated human control or AD brain extracts (30 μg total protein/ml) for 5 min. Whole cell lysates were analyzed by anti-phospho-eEF2 or anti-eEF2 immunoblot. AD, but not control (Con), brain extracts increased p-eEF2/eEF2 ratio to 200±10% of untreated cultures (mean±sem, n=4). FIG. 2C: Wild type cortical neurons were treated with or without Aβo for 15 min. […] Whole cell lysates were analyzed by anti-phospho-SFK, anti-Fyn, anti-phospho-eEF2, or anti-eEF2 immunoblot. GAPDH served as a loading control. FIG. 2D: Quantification of phospho-eEF2 level normalized to eEF2 immunoreactivity from four independent experiments. Mean±sem; *, P<0.05, n.s., not significant; One-way ANOVA, with Tukey post-hoc pairwise comparisons.
Because spine turnover is dependent on protein translation machinery, and because both Aβo and Fyn have been linked to mGluR5, a downstream effector of mGluR5-regulated protein translation, the eukaryotic elongation factor 2 (eEF2), was considered. The eEF2 pathway is regulated by phosphorylation and is dysregulated in AD. A3o treatment of cortical neurons increases eEF2 phosphorylation at 5 min (FIG. 2A). Genetic analysis confirmed that the Aβo effect on eEF2 phosphorylation depends on PrP^C (FIG. 2A).
It was tested whether phosphorylation of eEF2 induced by Aβo depends on AZD0530-sensitive Fyn kinase activation. […] Thus, AZD0530 prevented Aβo/PrP-induced, Fyn-dependent neuronal signaling in vitro.

[2] = Dog toxicology studies (6 month and nine-month); type: in vivo
Text: The body weight of dogs treated with different doses of saracatinib was plotted as a function of time. There were a […] (4 female and 4 male in each group), but a single sex (male) is shown here because the weight range is different between sexes. The trend for female dogs is similar but not shown. Values are mean±sem.

[3] = test system: PS19 mice; test: Immunohistochemistry of hippocampus of PS19 mice; type: in vivo, mouse
Text: FIG. 12A-12F illustrate reduced phospho-Tau accumulation in transgenic mice treated with AZD0530. FIG. 12A: Representative images of AT8 immunoreactivity in the dentate gyrus (DG) of the hippocampus in 9-month-old PS19 mice after 7 months of treatment with AZD0530 or Vehicle. Scale bar, […]. FIG. 12B: Quantification of AT8-positive area (%) in the dentate gyrus of the hippocampus in 9-month-old PS19 and WT mice after 7 months of treatment. Data are mean±SEM. n=7-10/group, each dot is one mouse. […] FIG. 12C: Representative images of immunofluorescent staining for AT8 in the CA1 of the hippocampus in 9-month-old PS19 and WT mice after 7 months of treatment. Scale bar, […]. FIG. 12D: Quantification of AT8-positive area in the CA1 of the hippocampus in 9-month-old PS19 and WT mice after 7 months of treatment. Data are mean±SEM. n=7-10/group, each dot is one mouse. […] FIG. 12E: Representative images of immunofluorescent staining for PHF1 in the CA1 of the hippocampus in 9-month-old PS19 and WT mice after 7 months of treatment. Scale bar, […]. FIG. 12F: Quantification of PHF1-positive area in the CA1 of the hippocampus in 9-month-old PS19 and WT mice after 7 months of treatment. Data are mean±SEM. n=7-10/group, each dot is one mouse.
FIGS. 13A-13D illustrate that chronic Fyn inhibition prevents glial activation in mutant Tau transgenic mice. FIG. 13A: Representative images of CD68 and Ibal double immunostaining in the CA3 region of the hippocampus from 9-month-old PS19 and WT mice after 7 months of treatment with AZD0530 or Vehicle. Scale bar, 20 μm. FIG. 13B: Quantification of CD68-positive area (%) within Ibal-immuoreative area in the CA3 segment of the hippocampus from 9-month-old PS19 and WT mice after 7 months of treatment. Data are as mean±SEM. n=7-10/group, each dot is one mouse. *p<0.05; One-way ANOVA with Dunnett's multiple comparisons test. FIG. 13C: Representative images of immunofluorescent staining GFAP in the dentate gyrus (DG) of the hippocampus in 9-month-old PS19 and WT mice after 7 months of treatment. Scale bar, 20 μm. FIG. 13D: Quantification of GFAP-positive area (%) in the dentate gyrus of the hippocampus in 9-month-old PS19 and WT mice after 7 months of treatment. n=7-10/group, each dot is one mouse. Data are mean±SEM. *p<0.05; One-way ANOVA with Dunnett's multiple comparisons test.
FIGS. 14A-14B illustrate the finding that loss of presynaptic marker SV2A in P301S Tau transgenic mice is rescued by Fyn inhibition. FIG. 14A: Representative images of immunofluorescent staining for SV2A in the CA3 region of the hippocampus from 9-month-old PS19 and WT mice after 7 months of treatment with AZD0530 or Vehicle. Dashed lines represent the divide between the cell body layer and synaptic region. The cell bodies in the image were used to capture similar ROI from each section. Scale bar, 20 μm. FIG. 14B: Quantification of SV2A-positive area (%) in the CA3 of the hippocampus in 9-month-old PS19 and WT mice after 7 months of treatment. Data are mean±SEM. n=7-10/group, each dot is one mouse.
FIGS. 19A-19D illustrate low magnification survey of gliosis in PS19 mice unaffected by AZD0530. FIG. 19A: Representative images of Ibal immunostaining in the hippocampus in 9-month-old PS19 and WT mice after 7 months of treatment. Scale bar, 100 m. FIG. 19B: Quantification of Ibal-positive area (%) in the hippocampus in 9-month-old PS19 and WT mice collected after 7 months of treatment. Data are mean±SEM. n=7-10/group. One-way ANOVA. FIG. 19C: Representative images of immunofluorescent staining GFAP in the hippocampus in 9-month-old PS19 and WT mice after 7 months of treatment. Scale bar, 100 μm. FIG. 19D: Quantification of GFAP-positive area (%) in the hippocampus in 9-month-old PS19 and WT mice collected after 7 months of treatment. Data are mean±SEM. n=7-10/group. One-way ANOVA.
Immunohistochemistry was performed as previously described (Kaufman et al., 2015, Ann Neurol 77:953-971) with slight modifications. […]

[4] = saracatinib 1 hour prior to Aβo, Aβo 15 min
[5] = 9-month-old PS19 mice, 7 months of treatment

CN1CCN(CCOc2cc(OC3CCOCC3)c3c(Nc4c(Cl)ccc5c4OCO5)ncnc3c2)CC1 [saracatinib, N-(5-chloro-benzo[d][1,3]dioxol-4-yl)-7-(2-(4-methylpiperazin-1-yl)ethoxy)-5-(tetrahydro-2H-pyran-4-yloxy)quinazolin-4-amine]
basal p-SFK levels ([1]; cortical neurons, saracatinib 1 hour): suppressed
Aβo stimulation of target kinase (p-SFK) [1, 4]: fully prevented
Aβo-induced increase of eEF2 phosphorylation [1, 4]: fully blocked
body weight ([2]; nine-month study): continued weight gain
adverse symptoms ([2]; nine-month study, 0.5, 2 and 5 mg/kg/d, at 8.75 months): no obvious adverse symptoms
AT8 (phospho-Tau Ser202/Thr205) immunoreactivity in DG and CA1 [3, 5]: significantly mitigates the increase
CD68 immunoreactivity in Iba1-immunoreactive area of CA3 [3, 5]: almost completely prevented the increase
SV2A immunoreactivity in CA3 [3, 5]: fully rescued the reduction
astrocytosis (GFAP-immunoreactive area in dentate gyrus) [3, 5]: significantly attenuated
gliosis (Iba1, GFAP) in hippocampus, low magnification survey [3, 5]: unaffected
PHF-1 (phospho-Tau Ser396/Ser404) immunoreactive area in CA1 ([3]; 9-month-old PS19 mice, 7 months of treatment, vs Vehicle): significant decrease
PY18 Tau levels ([3]; AZD0530-treated PS19 samples): no change
